Consider 2 compounds from patent US20050238724A1, “Pharmaceutical composition containing lamotrigine particles of defined morphology” (Teva Pharmaceutical Industries Ltd., priority 2002, published 2005).

The nature of data set [1]: Particle diameter by laser diffraction (Malvern Mastersizer). The format is physicochemical. The protocol: The “particle diameter” refers to the equivalent spherical diameter as determined by laser light scattering method. Particle diameter of lamotrigine was determined by laser diffraction. We determined the diameter of lamotrigine particles using a Malvern™ Mastersizer laser diffraction instrument. Samples of lamotrigine were suspended in hexane containing a surfactant (0.07% dioctyl sulfosuccinate sodium salt). The suspensions were mixed and then sonicated for 15 seconds to thoroughly disperse the lamotrigine particles. The dispersion was then recirculated in the flow cell of the Malvern Mastersizer for two minutes before particle diameter measurements were taken.

Data set [2] is described as follows: Specific surface area by gas adsorption, multipoint BET (Coulter SA3100). The format is physicochemical. Particulars: micronized particles; degassing 70° C., 30 minutes; 10 points. An excerpt:
Gas adsorption analysis is a preferred method for determining the surface area of a sample of lamotrigine for purposes of this invention since it provides a direct measurement of surface area. It is therefore considered to be more accurate than other methods such as electron microscopy and laser diffraction that rely upon a model to obtain a value for surface area (e.g. equivalent sphere model).
We measured specific particle surface area by gas adsorption using a Coulter™ SA3100 Series adsorption analyzer. The specific surface area of a sample of lamotrigine particles was calculated by the multipoint Brunauer, Emmet and Teller (BET) method. Brunauer, S., P. H. Emmett, E. Teller, J. Am. Chem. Soc., 1938, 60, 309-319. The calculations of the surface area of lamotrigine particles and its precise weight would yield specific surface area (usually expressed as square meters/gram). […] The volume of the manifold was measured with helium gas using a conventional technique. […] The instrument's software calculated the moles of adsorbed N2 (based upon inputted sample mass, manifold volume and sample tube void volume) for ten equilibrium pressures (Ps). […]
The specific surface area of the lamotrigine particles was measured with a Coulter SA 3100, using the multipoint BET technique. […] For the linearity, 10 points were measured, using high sensitivity.

Where [3] appears, read: initial particles before air jet milling.

As to `Nc1nnc(-c2cccc(Cl)c2Cl)c(N)n1` [Lamotrigine, 3,5-diamino-6-(2,3-dichlorophenyl)-1,2,4-triazine], in data set [1] (setting [3]), the “particle diameter, 50% of the particles equal to or less than” value is no more than 250 μm and the “particle diameter, about 80% of the particles equal to or less than” value was no more than 500 μm.

`Nc1nnc(-c2cccc(Cl)c2Cl)c(N)n1` [lamotrigine micronized particles, 3,5-diamino-6-(2,3-dichlorophenyl)-1,2,4-triazine]: the “diameter of all particles in the plurality” value in data set [1] (after micronization in air jet mill) is listed as “less than 100 μm”. Also, the specific surface area in data set [2] is reported as 3.1-3.3 square meters per gram.
